Laboratory results from patent publication US20250049693A1, “METHOD FOR AMPLIFYING EXPRESSION OF TRANSPORTER-RELATED GENE IN EPIDERMAL CELLS” (J-Network, Inc., priority 2023, published 2025).

Legend:
[1] = system: Normal human epidermal keratinocytes (NHEKs); assay: Evaluation of cellular uptake action of vitamin C: hydroquinone cytotoxicity, neutral red assay; type: cell-based; details: then 400 μM hydroquinone 24 hours
Procedure: This evaluation was performed by quantifying the cytotoxicity of hydroquinone (HQ) when a diacylglycerol PEG adduct, vitamin C, and hydroquinone were added to epidermal cells.
Normal human epidermal keratinocytes (NHEKs) were seeded on a 96-well plate at a cell density of 2.0×10^4 cells/well using HuMedia-KG2 medium and cultured under the conditions of 37° C. and 5% CO: for 24 hours.
Thereafter, using HuMedia-KB2 medium, a sample to which 50 μM of PEG-23 glycerol distearate (GDS23) was added and a sample to which GDS23 was not added were respectively cultured under the conditions of 37° C. and 5% CO: for 24 hours.
Subsequently, the samples were washed with PBS (−), and the GDS23-added samples and the GDS23 non-added samples were respectively cultured in the following six media for 24 hours. • HuMedia-KB2 medium containing 0 μM of ascorbic acid (AsA) • HuMedia-KB2 medium containing 1 μM of ascorbic acid (AsA) • HuMedia-KB2 medium containing 5 μM of ascorbic acid (AsA) • HuMedia-KB2 medium containing 10 μM of ascorbic acid (AsA) • HuMedia-KB2 medium containing 50 μM of ascorbic acid (AsA) • HuMedia-KB2 medium containing 100 μM of ascorbic acid (AsA)
The control (no addition of any of GDS23, AsA, and HQ) was cultured only in HuMedia-KB2 medium.

[2] = system: Normal human epidermal keratinocytes (NHEKs); assay: Evaluation of cellular uptake action of cystine: hydroquinone cytotoxicity, neutral red assay; type: cell-based; details: then 400 μM hydroquinone 24 hours
Procedure: From the test results of (1) and (2) described above, it was confirmed that the expression of the SLC7A11 genes was enhanced by the application of the diacylglycerol PEG adduct to epidermal cells, and thus the production of the protein, which is the xCT transporter encoded thereby, was enhanced. Therefore, the cellular uptake action of cystine was actually evaluated. This evaluation was performed by quantifying the cytotoxicity of hydroquinone (HQ) when a diacylglycerol PEG adduct, cystine, and hydroquinone were added to epidermal cells.
Normal human epidermal keratinocytes (NHEKs) were seeded on a 96-well plate at a cell density of 2.0×10^4 cells/well using HuMedia-KG2 medium and cultured under the conditions of 37° C. and 5% CO2 for 24 hours.
Thereafter, using HuMedia-KB2 medium, a sample to which 50 μM of PEG-23 glycerol distearate (GDS23) was added and a sample to which GDS23 was not added were respectively cultured under the conditions of 37° C. and 5% CO2 for 24 hours.
Subsequently, the samples were washed with PBS (−), and the GDS23-added samples and the GDS23 non-added samples were respectively cultured in the following three media for 30 hours. The cysteine added to the medium is oxidized in the medium or between cells to be converted into cystine, which is a dimer, and is incorporated into the cells as cystine. • HuMedia-KB2 medium containing 0 μM of cysteine (Cys) • HuMedia-KB2 medium containing 10 μM of cysteine (Cys) • HuMedia-KB2 medium containing 50 μM of cysteine (Cys)
Further, the cells were washed with PBS (−) and cultured in HuMedia-KB2 medium containing 400 μM of hydroquinone (HQ) for 24 hours.
The control (no addition of any of GDS23, Cys, and HQ) was cultured only in HuMedia-KB2 medium.
Thereafter, the cell viability was measured by the neutral red assay. The cell viability was calculated for each of the GDS23-added samples and the GDS23 non-added samples, taking the cell viability of the control as 100%.

SVCT2 gene = assay: Amplification of mRNA expression of SVCT2 gene (quantitative real-time PCR); type: cell-based, human; details: NHEKs; 100 μM; culture 30 hr; corrected with GAPDH, control = 1
Procedure: (§1) A test for confirming the amplification of mRNA expression of each transporter-related gene in epidermal cell was performed.
(§2) Normal human epidermal keratinocytes (NHEKs) were seeded on a 96-well plate at a cell density of 2.0×10^4cells/well using HuMedia-KG2 medium (manufactured by Kurabo Industries Ltd.), and cultured under the conditions of 37° C. and 5% CO2 for 24 hours.
(§3) Thereafter, a diacylglycerol PEG adduct was added thereto using HuMedia-KB2 medium (manufactured by Kurabo Industries Ltd.), and each was cultured under the conditions of 37° C. and 5% CO2 for a predetermined time. Table 1 represents the target gene, the types of diacylglycerol PEG adduct added, the adding amount, and the culture time. A control (no addition) was also cultured under the same conditions.
(§4) After the cells were cultured for each predetermined time, RNA was extracted from the cells of each sample and control. The extracted RNA was reverse-transcribed to prepare cDNA, and the mRNA of the target gene was quantified by quantitative real-time PCR expression analysis. […]
(§5) In the analysis, the mRNA expression level of each target gene was corrected with the value of the expression level of GAPDH, which is an internal standard in the same sample, and the correction value of the sample was calculated as a relative expression level when the correction value of the control was set to 1.

SLC7A11 gene = assay: Amplification of mRNA expression of SLC7A11 gene (quantitative real-time PCR); type: cell-based, human; details: NHEKs; 100 μM; culture 24 hr; corrected with GAPDH, control = 1
Procedure: as §1, §2, §3, §4, §5

GSR gene = assay: Amplification of mRNA expression of GSR gene (quantitative real-time PCR); type: cell-based, human; details: NHEKs, corrected with GAPDH, control = 1
Procedure: as §1, §2, §3, §4, §5

ABCC1 gene = assay: Amplification of mRNA expression of ABCC1 gene (quantitative real-time PCR); type: cell-based, human; details: NHEKs, corrected with GAPDH, control = 1
Procedure: as §1, §2, §3, §4, §5

SVCT2 protein = assay: Test for enhanced production of SVCT2 proteins (Western blotting); type: cell-based, human; details: NHEKs, 50 μM, 24 hours
Procedure: A test for confirming the enhanced production of proteins encoded by the SVCT2 genes was performed using Western blotting.
Normal human epidermal keratinocytes (NHEKs) were seeded on a 96-well plate at a cell density of 1.0×10^5 cells/well using HuMedia-KG2 medium and cultured under the conditions of 37° C. and 5% CO2 for 24 hours.
Thereafter, 50 μM of PEG-23 glycerol distearate (GDS23) was added thereto using HuMedia-KB2 medium, and the cells were cultured under the conditions of 37° C. and 5% CO2 for 24 hours. A control (no addition) was cultured only in HuMedia-KB2 medium.
After culturing, Western blotting was applied. First, proteins were extracted from the cells using […] containing 10% mercaptoethanol. The protein extract solution was subjected to electrophoresis using a polyacrylamide gel, and the proteins were transferred to a membrane by a semi-dry method. The amount of the SVCT2 protein was corrected with the amount of GAPDH, which is an internal standard in the same sample, and the correction value of the sample was calculated with the correction value of the control set to 1.

`O=C1O[C@H]([C@@H](O)CO)C(O)=C1O` [ascorbic acid, reference compound] was tested, and the “effect of ascorbic acid on the cytotoxicity caused by hydroquinone (cell viability)” value ([1]; GDS23 non-added samples, ascorbic acid 5 to 100 μM, 24 hours, versus ascorbic acid non-added sample) was “almost no effect”.

`N[C@@H](CS)C(=O)O` [cysteine, reference compound] was tested, and the “effect of cysteine (cystine) on the cytotoxicity caused by hydroquinone (cell viability)” value ([2]; GDS23 non-added samples, cysteine 10 μM and 50 μM, 30 hours, versus cysteine non-added sample) was “almost no effect”.

In the case of PEG-12 glycerol dimyristate [GDM12], the “relative expression level of SVCT2 gene” value (SVCT2 gene) is reported as “about 1.4 times that of the control”, the “relative expression level of SLC7A11 gene” value (SLC7A11 gene) is reported as “about 1.4 times that of the control” and the “relative expression level of GSR gene” value (GSR gene; 100 μM, culture 30 hr) is reported as “about 1.5 times that of the control”. The “relative expression level of ABCC1 gene” value (ABCC1 gene; 100 μM, culture 30 hr) was “about 1.3 times that of the control”.

PEG-23 glycerol distearate [GDS23] was tested, and the “relative expression level of GSR gene” value (GSR gene; 50 μM, culture 24 hr) was “about 1.8 times that of the control”, the “relative expression level of ABCC1 gene” value (ABCC1 gene; 50 μM, culture 24 hr) was “about 2.1 times that of the control” and the “SVCT2 protein band (Western blot image)” value (SVCT2 protein; FIG. 11) was “increase”. For the same compound, the “amount of the SVCT2 protein” value (SVCT2 protein; Western blot, corrected with GAPDH, control = 1) was “about 1.4 times that in the control sample”, the “cytotoxicity by hydroquinone (cell viability), GDS23-added versus GDS23 non-added samples” value ([1]; 50 μM GDS23 24 hours, ascorbic acid 0-100 μM 24 hours) was “significantly reduced” and the “cell viability of ascorbic acid-added samples versus ascorbic acid non-added sample among GDS23-added samples” value ([1]; 50 μM GDS23 24 hours, ascorbic acid 1-100 μM 24 hours) was “higher”. For the same compound, the “cytotoxicity by hydroquinone (cell viability), GDS23-added versus GDS23 non-added samples” value ([2]; 50 μM GDS23 24 hours, cysteine 0-50 μM 30 hours) was “significantly reduced” and the “cell viability of cysteine-added samples versus cysteine non-added sample among GDS23-added samples” value ([2]; 50 μM GDS23 24 hours, cysteine 10 or 50 μM 30 hours) was “higher”.
